Read-outs that look alike come from different tables or passages of the source.
Legend:
HIV-1 RTMDR = experiment: Multi-RTI-resistant HIV-1 RTMDR infection in TZM-bl cell line; assay type: cell-based; conditions: Human immunodeficiency virus 1, TZM-bl
TZM-bl cell line = conditions: cited from earlier work
HIV-1 NL4-3 [1] = conditions: NL4-3 in TZM-bl cell line; starred compounds, data were reported in ref [11]; cited from earlier work
MT-2 cells = conditions: cited from earlier work
HIV-1 IIIB [2] = conditions: cited from earlier work
HIV-1 IIIB [3] = experiment: Inhibition of HIV-1 IIIB replication in MT-2 cells; assay type: cell-based; conditions: Human immunodeficiency virus 1, IIIB
HIV-1 NL4-3 [4] = experiment: in vitro; assay type: cell-based; conditions: for EC50: Human immunodeficiency virus 1, NL43, TZM-bl
HIV-1 A17 (K103N/Y181C) = experiment: Multi-RTI-resistant HIV-1 A17 replication in MT-2 cells; assay type: cell-based; conditions: Human immunodeficiency virus 1, MT2
[5] = TZM-bl cell line, XTT assay, starred compounds, data were reported in ref [11]
[6] = MT-2 cell line, XTT assay, starred compounds, data were reported in ref [11]
[7] = IIIB in MT-2 cell line, starred compounds, data were reported in ref [11]

Cc1cc(I)cc(C)c1Oc1ccc([N+](=O)[O-])c(Nc2ccc(C#N)cc2)n1 [11a, N^2-(4′-Cyanophenyl)-6-(2″,6″-dimethyl-4″-iodo)phenoxy-3-nitropyridin-2-amine]
EC50 (HIV-1 RTMDR): 94.3 ± 9 nM
CC50 (TZM-bl cell line; [5]): > 41200 nM
EC50 (HIV-1 NL4-3 [1]): 60.7 ± 24 nM
SI (selective index = CC50/EC50) (HIV-1 NL4-3 [1]): >675
CC50 (MT-2 cells; [6]): 22900 nM
EC50 (HIV-1 IIIB [2]; [7]): 79 ± 2 nM
SI (selective index = CC50/EC50) (HIV-1 IIIB [2]; [7]): 283

Cc1cc(C#CC(C)(C)O)cc(C)c1Oc1ccc([N+](=O)[O-])c(Nc2ccc(C#N)cc2)n1 [11d, N-(4′-Cyanophenyl)-6-[2″,6″-dimethyl-4″-(3-methylbut-3-ol-1-yn)phenoxy]-3-nitropyridin-2-amine]
CC50 (TZM-bl cell line): 45200 nM
SI (selective index = CC50/EC50) (HIV-1 NL4-3 [1]): 1.09
CC50 (MT-2 cells): 23300 nM
SI (selective index = CC50/EC50) (HIV-1 IIIB [2]): 2.61

Cc1cc(C#CC2CC2)cc(C)c1Oc1ccc([N+](=O)[O-])c(Nc2ccc(C#N)cc2)n1 [11e, N-(4′-Cyanophenyl)-6-[4″-(2-cyclopropylethynyl)-2″,6″-dimethyl]phenoxy-3-nitro-pyridin-2-amine]
EC50 (HIV-1 IIIB [3]; MT2, IIIB in MT-2 cell line): > 3000 nM

C#Cc1cc(C)c(Oc2ccc([N+](=O)[O-])c(Nc3ccc(C#N)cc3)n2)c(C)c1 [11f, N^2-(4′-Cyanophenyl)-6-(2″,6″-dimethyl-4″-ethynyl)phenoxy-3-nitropyridin-2-amine]
EC50 (HIV-1 RTMDR): 215 ± 33 nM
CC50 (TZM-bl cell line; [5]): > 52100 nM
EC50 (HIV-1 NL4-3 [1]): 111 ± 86 nM
SI (selective index = CC50/EC50) (HIV-1 NL4-3 [1]): >469
CC50 (MT-2 cells; [6]): > 100000 nM
EC50 (HIV-1 IIIB [2]; [7]): 247 ± 40 nM
SI (selective index = CC50/EC50) (HIV-1 IIIB [2]; [7]): >405

Cc1cc(/C=C/C#N)cc(C)c1Oc1ccc([N+](=O)[O-])c(Nc2ccc(C#N)cc2)n1 [11m, (E)-N-(4′-Cyanophenyl)-6-(4″-cyanovinyl-2″,6″-dimethyl)phenoxy-3-nitropyridin-2-amine]
EC50 (HIV-1 RTMDR): 14.8 ± 2.4 nM

Cc1cc(/C=C/C#N)cc(C)c1Oc1ccc([N+](=O)[O-])c(Nc2ccc(C#N)cc2)c1 [12c, (E)-N^2-(4′-Cyanophenyl)-4-(4″-cyanovinyl-2″,6″-dimethyl)phenoxy-1-nitroaniline]
selectivity ratio (HIV-1 NL4-3 [4]; human): > 4690

Cc1cc(I)cc(C)c1Oc1ccc(N)c(Nc2ccc(C#N)cc2)n1 [13a, N^2-(4′-Cyanophenyl)-6-(2″,6″-dimethyl-4″-iodo)phenoxypyridin-2,3-diamine]
EC50 (HIV-1 RTMDR): 5.13 ± 1.15 nM
CC50 (TZM-bl cell line; [5]): 16700 nM
EC50 (HIV-1 NL4-3 [1]): 7.6 ± 2.3 nM
SI (selective index = CC50/EC50) (HIV-1 NL4-3 [1]): 2200
CC50 (MT-2 cells; [6]): 7240 nM
EC50 (HIV-1 IIIB [2]; [7]): 54 ± 4 nM
SI (selective index = CC50/EC50) (HIV-1 IIIB [2]; [7]): 134

C=CCc1cc(C)c(Oc2ccc(N)c(Nc3ccc(C#N)cc3)n2)c(C)c1 [13c, 6-(4″-Allyl-2″,6″-dimethyl)phenoxy-N^2-(4′-cyanophenyl)pyridin-2,3-diamine]
EC50 (HIV-1 RTMDR): 15.4 ± 1.6 nM

Cc1cc(C#CC(C)(C)O)cc(C)c1Oc1ccc(N)c(Nc2ccc(C#N)cc2)n1 [13d, N^2-(4′-Cyanophenyl)-6-[2″,6″-dimethyl-4″-(3-methylbut-3-ol-1-yn)phenoxy]pyridin-2,3-di amine]
CC50 (TZM-bl cell line): 8730 nM
EC50 (HIV-1 NL4-3 [1]): 241 ± 14.7 nM
SI (selective index = CC50/EC50) (HIV-1 NL4-3 [1]): 36
CC50 (MT-2 cells): 3540 nM
EC50 (HIV-1 IIIB [2]; [7]): 1580 ± 97 nM
SI (selective index = CC50/EC50) (HIV-1 IIIB [2]): 2.25

Cc1cc(C#CC2CC2)cc(C)c1Oc1ccc(N)c(Nc2ccc(C#N)cc2)n1 [13e, N^2-(4′-Cyanophenyl)-6-[4″-(2-cyclopropylethynyl)-2″,6″-dimethylphenoxy]pyridin-2,3-diamine]
EC50 (HIV-1 A17 (K103N/Y181C)): > 10000 nM
EC50 (HIV-1 RTMDR): 121 ± 17.7 nM

C#Cc1cc(C)c(Oc2ccc(N)c(Nc3ccc(C#N)cc3)n2)c(C)c1 [13f, N^2-(4′-Cyanophenyl)-6-(2″,6″-dimethyl-4″-ethynyl)phenoxypyridin-2,3-diamine]
EC50 (HIV-1 A17 (K103N/Y181C)): 1430 ± 260 nM
EC50 (HIV-1 RTMDR): 9 ± 2 nM
CC50 (TZM-bl cell line; [5]): 9940 nM
EC50 (HIV-1 NL4-3 [1]): 6.7 ± 1 nM
SI (selective index = CC50/EC50) (HIV-1 NL4-3 [1]): 1484
CC50 (MT-2 cells; [6]): 9280 nM
SI (selective index = CC50/EC50) (HIV-1 IIIB [2]; [7]): 221

CC(=O)CCc1cc(C)c(Oc2ccc(N)c(Nc3ccc(C#N)cc3)n2)c(C)c1 [13k, 6-[(4″-Butan-2-one)-2″,6″-dimethyl]phenoxy-N^2-(4′-cyanophenyl)pyridin-2,3-diamine]
EC50 (HIV-1 A17 (K103N/Y181C)): 730 ± 58 nM
EC50 (HIV-1 RTMDR): 3.2 ± 0.8 nM

Cc1cc(/C=C/C#N)cc(C)c1Oc1ccc(N)c(Nc2ccc(C#N)cc2)n1 [13m, (E)-N^2-(4′-Cyanophenyl)-6-(4″-cyanovinyl-2″,6″-dimethyl)phenoxypyridin-2,3-diamine]
EC50 (HIV-1 A17 (K103N/Y181C)): 200 ± 10 nM
EC50 (HIV-1 RTMDR): 0.59 ± 0.09 nM

Cc1cc(C#N)cc(C)c1Oc1ccc(N)c(Nc2ccc(C#N)cc2)n1 [compound 3, reference compound]
EC50 (HIV-1 NL4-3 [4]; NL4-3 in TZM-bl cell line): 0.68 ± 0.03 nM
EC50 (HIV-1 RTMDR): 0.96 ± 0.3 nM

N#Cc1ccc(Nc2cc(Oc3ccc4cc(C#N)ccc4c3)c([N+](=O)[O-])cc2[N+](=O)[O-])cc1 [compound 17, 5-(6-Cyano-2-naphthoxy)-N^1-(4′-cyanophenyl)-2,4-dinitroaniline]
EC50 (HIV-1 NL4-3 [4]): > 100 nM
EC50 (HIV-1 IIIB [3]; MT2): > 100 nM

N#Cc1ccc(Nc2cc(Oc3ccc4cc(C#N)ccc4c3)c([N+](=O)[O-])cc2N)cc1 [compound 19, 4-(6-Cyano-2-naphthoxy)-N^2-(4′-cyanophenyl)-5-nitrobenzene-1,2-diamine]
EC50 (HIV-1 NL4-3 [4]; NL4-3 in TZM-bl cell line): > 100 nM
EC50 (HIV-1 IIIB [3]; MT2, IIIB in MT-2 cell line): > 100 nM

N#Cc1ccc(Nc2cc([N+](=O)[O-])c(Oc3ccc4cc(C#N)ccc4c3Br)cc2N)cc1 [compound 20, 4-(1-Bromo-6-cyano-2-naphthoxy)-N^1-(4′-cyanophenyl)-5-nitrobenzene-1,2-diamine]
EC50 (HIV-1 NL4-3 [4]; NL4-3 in TZM-bl cell line): > 100 nM
EC50 (HIV-1 IIIB [3]; MT2, IIIB in MT-2 cell line): > 100 nM

— publication PMC3050082 (Journal of medicinal chemistry, 2010)
